Experimental data: patent publication US9155804B2, “Contrast enhancement agents and method of use thereof” (General Electric Company, priority 2012, dated 2015)

Legend:
[1] = test system: MATBIII breast cancer cells; assay: Dynamic contrast enhanced MR tumor imaging in MATBIII tumor bearing mice; format: in vivo, SCID mice; details: DCE MR, dose 0.2 mmol/kg Gd, Fe, mammary MBIII rodent tumor model
Protocol: Cell Preparation: MATBIII breast cells (available from ATCC®) were trypsinized using 1× trypsin-EDTA. The cells were washed using IX phosphate buffered saline (PBS) and aliquots of 2×10^6 cells were made in 1×PBS (100 uL). Prior to injection into the subject, 50 μL of basement membrane matrix (Matrigel®, BD Biosciences) was added to each aliquot.
Tumor Induction: All procedures involving animals were completed under protocols approved by the GE Global Research Institutional Animal Care and Use Committee. Female, 5-7 weeks old, SCID mice (Charles River Laboratories) were briefly anesthetized with 2% isoflurane and injected with 1×10^6 MATBIII breast cancer cells in 1×PBS (100 μL) and Matrigel SC to their left flank. The animals were monitored for 7 days post tumor cell injections at which point, precontrast agent MR images of the resulting lesions, typically 1 cm in diameter, were collected using the sequences described below.

[2] = Hydrodynamic size assay (dynamic light scattering); format: physicochemical
Protocol: The dilution was carried out to yield approximately 20,000 counts per second during the DLS measurement and the sample was allowed to equilibrate for 10 minutes in the instrument prior to data collection.

Agent size (hydrodynamic diameter) [2]: Magnevist - Gd (1 nm)
Compound: CNC[C@H](O)[C@@H](O)[C@H](O)[C@H](O)CO.CNC[C@H](O)[C@@H](O)[C@H](O)[C@H](O)CO.O=C([O-])CN(CCN(CC(=O)[O-])CC(=O)O)CCN(CC(=O)[O-])CC(=O)O.[Gd+3] [Magnevist - Gd]
Tumor-to-muscle signal enhancement ratio (Tumor: Muscle), Average [1]: 3.6
